Reference: ChEMBL document CHEMBL1201862, “PubChem BioAssay data set” (2004)
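Briefly, cells in 96-well plates were exposed to five compound concentrations for 48 h, and endpoints were estimated by linear interpolation. Abbreviation: GI50, concentration required for 50% inhibition of growth.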 Calls of active or inactive are those of the source. Cut-off read from the data, not from the text of the source: active = GI50 up to about 1.1 µM and inactive = higher.

Tests used:
Assay in all cases: DTP human tumour cell line panel, 48 h
OVCAR-8 = system: OVCAR-8
XF498 = system: XF498
OVCAR-5 = system: OVCAR-5
UACC-62 = system: UACC-62
SNB-75 = system: SNB-75
LXFL 529 = system: LXFL 529
UACC-257 = system: UACC-257
DLD-1 = system: DLD-1
SF-295 = system: SF-295
HCC 2998 = system: HCC 2998
OVCAR-3 = system: OVCAR-3
EKVX = system: EKVX
MOLT-4 = system: MOLT-4
HCT-116 = system: HCT-116
RPMI-8226 = system: RPMI-8226
HOP-92 = system: HOP-92

Measured: GI50

O=S(O)CCCSSc1ccccc1
inactive: OVCAR-8 26.5 µM | XF498 98.9 µM | OVCAR-5 > 100 µM | UACC-62 36.6 µM | SNB-75 20.8 µM | LXFL 529 32.5 µM | UACC-257 40.2 µM | DLD-1 41.9 µM | SF-295 53.2 µM | HCC 2998 76.9 µM | OVCAR-3 53.8 µM | EKVX 36.1 µM | MOLT-4 17.5 µM | HCT-116 37.7 µM

CS/C(=N/C#N)NCCc1c[nH]c2ccccc12
inactive: OVCAR-8 > 100 µM | XF498 34.8 µM | RPMI-8226 96.8 µM | OVCAR-5 > 100 µM | UACC-62 > 100 µM | SNB-75 35.2 µM | LXFL 529 > 100 µM | UACC-257 > 100 µM | DLD-1 > 100 µM | SF-295 > 100 µM | HCC 2998 > 100 µM | OVCAR-3 > 100 µM | EKVX 18 µM | MOLT-4 80.7 µM | HCT-116 > 100 µM

CN(C)c1ccc(-c2nc(N)nc3c2CCCC3)cc1
inactive: OVCAR-8 74.5 µM | XF498 19.4 µM | RPMI-8226 30 µM | OVCAR-5 > 100 µM | UACC-62 44.7 µM | SNB-75 42 µM | LXFL 529 63.8 µM | DLD-1 54.5 µM | SF-295 38.5 µM | HCC 2998 80 µM | OVCAR-3 23.4 µM | EKVX 28.4 µM | MOLT-4 30.2 µM | HCT-116 38.3 µM

Cc1nc(Nc2ccccc2)sc1C(=O)NNc1ccc([N+](=O)[O-])cc1[N+](=O)[O-]
inactive: OVCAR-8 39.2 µM | XF498 24.3 µM | OVCAR-5 33.7 µM | UACC-62 5.94 µM | SNB-75 22.7 µM | LXFL 529 28.7 µM | UACC-257 43.5 µM | DLD-1 25.5 µM | SF-295 27.5 µM | HCC 2998 43.7 µM | OVCAR-3 34.4 µM | EKVX 18.9 µM | MOLT-4 24.7 µM | HCT-116 42.4 µM

CC1CC(c2cccc3c2OCO3)=Nc2ccccc2S1 (stereo not given)
inactive: OVCAR-8 > 100 µM | XF498 > 100 µM | RPMI-8226 > 100 µM | OVCAR-5 > 100 µM | UACC-62 > 100 µM | SNB-75 > 100 µM | LXFL 529 > 100 µM | UACC-257 > 100 µM | HOP-92 > 100 µM | DLD-1 > 100 µM | SF-295 > 100 µM | HCC 2998 > 100 µM | OVCAR-3 > 100 µM | EKVX > 100 µM | MOLT-4 > 100 µM

CC(C)[C@@H](COC(C)(C)C)/N=C/N1CCc2c([nH]c3ccccc23)C1
inactive: OVCAR-8 > 100 µM | XF498 36.1 µM | RPMI-8226 > 100 µM | OVCAR-5 > 100 µM | UACC-62 > 100 µM | SNB-75 > 100 µM | LXFL 529 > 100 µM | HOP-92 21.5 µM | DLD-1 > 100 µM | SF-295 > 100 µM | HCC 2998 80 µM | OVCAR-3 > 100 µM | EKVX > 100 µM | MOLT-4 > 100 µM | HCT-116 > 100 µM

CCOc1ccc(NC(=O)C2=C(C)NC(C)=C(C(=O)Nc3ccc(OCC)cc3)C2c2ccccc2)cc1
inactive: OVCAR-8 > 100 µM | XF498 > 100 µM | RPMI-8226 49.9 µM | OVCAR-5 > 100 µM | SNB-75 95.7 µM | LXFL 529 51.3 µM | UACC-257 > 100 µM | HOP-92 > 100 µM | DLD-1 97.7 µM | SF-295 > 100 µM | HCC 2998 > 100 µM | OVCAR-3 > 100 µM | EKVX > 100 µM | MOLT-4 44.8 µM

CC(=O)c1cccc(N2COC(C)(C)c3nc4ccccc4n3C2)c1
inactive: OVCAR-8 > 100 µM | XF498 > 100 µM | RPMI-8226 > 100 µM | UACC-62 > 100 µM | SNB-75 > 100 µM | LXFL 529 > 100 µM | UACC-257 > 100 µM | HOP-92 > 100 µM | DLD-1 > 100 µM | SF-295 > 100 µM | HCC 2998 > 100 µM | OVCAR-3 > 100 µM | EKVX > 100 µM | MOLT-4 > 100 µM | HCT-116 > 100 µM

COC(=O)C(C(=O)C(=O)Nc1ccc(C)cc1)c1nc2ccc([N+](=O)[O-])cc2nc1O (stereo not given)
inactive: OVCAR-8 > 100 µM | XF498 > 100 µM | OVCAR-5 > 100 µM | UACC-62 85.7 µM | SNB-75 > 100 µM | LXFL 529 51.6 µM | UACC-257 > 100 µM | DLD-1 > 100 µM | SF-295 > 100 µM | HCC 2998 > 100 µM | OVCAR-3 > 100 µM | EKVX > 100 µM | MOLT-4 92.9 µM | HCT-116 > 100 µM

Cc1cc(NCCCCCCNc2cc(C)nc3ccc(Cl)cc23)c2cc(Cl)ccc2n1
inactive: OVCAR-8 18.5 µM | XF498 18.1 µM | RPMI-8226 47.4 µM | OVCAR-5 19.7 µM | UACC-62 19.5 µM | SNB-75 17.4 µM | LXFL 529 > 100 µM | UACC-257 20 µM | DLD-1 16.8 µM | SF-295 16.6 µM | HCC 2998 16.4 µM | OVCAR-3 18 µM | EKVX 15.8 µM | MOLT-4 27.7 µM | HCT-116 14.7 µM
